# According to patent US8541670B2, “Compositions and methods for inhibiting tumor cell growth” (priority 2007, dated 2013):
# Where no end group is shown, it is not given here. red fluorescent dye = not defined here
# Tests used:
# [1] = target: T1, p70S6K (Homo sapiens, UniProt P23443); test: Cell-based kinase assay, phosphorylation of intracellular substrate (Ser-235/236 S6)
# T1 construct: endogenous in cells
# Description: As a specific substrate, the phosphorylation level of GSK-3[…] at Ser-9 was also evaluated. […] The decrease was specific to the AKT phosphorylation site on GSK-3[…] at Ser-9, since a change in the phosphorylation level of GSK-3[…] at Tyr-216 or GSK-3[…] at Tyr-279 was not observed. Moreover, the in vivo reduction of the phosphorylation of AKT substrates was more obvious at the injection site, since a significant change in the phosphorylation of AKT substrates in the frontal cortex or cerebellum between the two hemispheres was not observed. […] To test the specificity/selectivity of ZaTa as the inhibitor of AKT1 versus the other major kinases, a series of in vitro kinase assays was performed at IC50 for AKT1 and at ten times higher concentrations. […]
# Phosphorylation sites for kinases analyzed herein included Ser-235/236 S6 (a substrate for p70S6K), Tyr-207 CRKL (a substrate for Abl; Zipfel, et al. (2004) supra), Ser-241 PDK1 (a substrate for PI3K), Tyr-1022/1023 JAK1 (a substrate for JAK3; Wang, et al. (2003) supra), Ser-421 Huntingtin (a substrate for SGK; Rangone, et al. (2004) supra), Tyr-783 PLC (a substrate for TrkB; Middlemas, et al. (1994) supra), and Ser-338 cRaf (a substrate for PAK3; King, et al. (1998) supra).
# [2] = system: non-proliferating neurons in primary cortical culture; test: TUNEL assay in primary cortical neuron culture; type: cell-based; conditions: 1 or 5 µM, 72-hour treatment, compared to control peptide
# Description: It is now well-established that AKT protects against apoptosis through phosphorylation and inhibition of pro-apoptotic mediators such as BAD, FOXO family members and IKK-[…] (Datta, et al. (1999) Genes Dev. 13:2905-2927). […] Primary neurons were treated with DMSO, 1 µM or 5 µM of either ZaTa or the control peptide for a duration of 1, 3, 16, 24, 48 or 72 hours. The number of apoptotic cells was counted following the TUNEL assay. […] The increase in the number of apoptotic neurons following treatment with ZaTa was consistent with its potent intra-neuronal inhibition of AKT.
# [3] = system: olfactory bulb cells; test: In vivo TUNEL in olfactory bulb after repeated intranasal delivery; parameters: species or system C57BL/6 mice; conditions: repeated intranasal treatment for three days
# Text: To confirm the apoptotic inducing effect of ZaTa in vivo, ZaTa was delivered to the mouse brain via the nasal cavity, a minimally invasive procedure compared to the stereotactic surgery. Intranasal delivery of compounds into the brain is an efficient and effective way for local delivery of compounds, without the need for passing the blood brain barriers, the major obstacle for studying the effect of different inhibitors/activators in CNS (Vyas, et al. (2005) Curr. Drug Deliv. 2:165-175; Hrafnkelsdottir, et al. (2005) Biol. Pharm. Bull. 28:1038-1042). […] This was visualized by double labeling of the brain sections with fluorescent TUNEL and a nuclear marker.
# Depending on the intended use, a pharmaceutical composition of the invention can be administered by any suitable means, including parenteral injection (such as intraperitoneal, subcutaneous, intratumoral or intramuscular injection), orally or by topical application (e.g., transdermal or via a mucosal surface). By pharmaceutically acceptable formulation is meant, a composition or formulation that allows for the effective distribution of the nucleic acid molecules of the instant invention in the physical location most suitable for their desired activity. […]
# T1 sequence (P23443 whole entry): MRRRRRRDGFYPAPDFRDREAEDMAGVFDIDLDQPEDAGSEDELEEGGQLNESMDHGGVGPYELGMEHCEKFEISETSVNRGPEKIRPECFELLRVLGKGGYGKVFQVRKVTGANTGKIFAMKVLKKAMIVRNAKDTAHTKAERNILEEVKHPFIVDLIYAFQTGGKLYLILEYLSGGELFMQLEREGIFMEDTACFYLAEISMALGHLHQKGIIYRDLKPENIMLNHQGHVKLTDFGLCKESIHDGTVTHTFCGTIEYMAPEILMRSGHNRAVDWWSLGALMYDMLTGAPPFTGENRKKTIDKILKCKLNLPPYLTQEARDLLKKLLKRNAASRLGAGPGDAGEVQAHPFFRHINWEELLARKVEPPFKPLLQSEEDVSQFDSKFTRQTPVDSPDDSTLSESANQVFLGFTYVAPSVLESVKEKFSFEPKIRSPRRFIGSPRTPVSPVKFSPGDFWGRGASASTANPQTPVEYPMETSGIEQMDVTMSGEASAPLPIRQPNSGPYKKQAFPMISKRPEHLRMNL
Substance,inhibition of p70S6K in cells [1],number of TUNEL-positive cells [2],number of apoptotic cells in olfactory bulb [3]
AKRVKGRTWTLCGTPEY [ZaTa],could inhibit p70S6K,marked dose-dependent increase,–
labeled ZaTa: ZaTa peptide labeled with a red fluorescent dye at its N-terminus ({red fluorescent dye}-AKRVKGRTWTLCGTPEY; reading uncertain),–,–,significantly increased
